Drug uptake and Activity data for one molecule are collected here from ChEMBL document CHEMBL4152375, “Compromising the plasma membrane as a secondary target in photodynamic therapy-induced necrosis” (Bioorg Med Chem, 2018).

Series [1] is described as follows: Drug uptake in endosome of CHO cells at 1 uM incubated for overnight followed by compound washout measured by fluorescence microscopic analysis. The class given is ADME, subcellular, Cricetulus griseus. The settings on record: chinese hamster.
Series [2] in a line: Drug uptake in endosome of fluorescein-dextran-labelled CHO cells at 1 uM incubated for overnight followed by compound washout measured by fluorescence microscopic analysis. Conditions: chinese hamster. The class given is ADME, subcellular, Cricetulus griseus.
Series [3] in a line: Drug uptake in lysosome of fluorescein-dextran-labelled CHO cells at 1 uM incubated for overnight followed by compound washout measured by fluorescence microscopic analysis. Conditions: chinese hamster. Format: ADME, subcellular, Cricetulus griseus.
The subject of series [4] is CHO. Nature of the series: Induction of plasma membrane-mediated necrosis in CHO cells assessed as swelling of nuclei at 1 uM incubated for overnight followed by compound washout and subsequent 150W irradiation for 30 secs by fluorescence microscopic analysis. Format: functional, cell-based. Conditions: Cricetulus griseus.
The subject of series [5] is CHO. The series is described as follows: Induction of plasma membrane-mediated necrosis in EthD1-labelled CHO cells assessed as swelling of nuclei at 1 uM incubated for overnight followed by compound washout and subsequent 150W irradiation for 30 secs by fluorescence microscopic analysis. Format: functional, cell-based. Conditions: Cricetulus griseus.
Series [6] can be described thus: Dark toxicity in CHO cells at 1 uM incubated for overnight followed by compound washout by fluorescence microscopic analysis. The settings on record: chinese hamster. Format: cell-based, Cricetulus griseus.
Series [7] concerns CHO. Nature of the series: Induction of plasma membrane-mediated necrosis in CHO cells at 1 uM incubated for overnight followed by compound washout with PBS 5% FBS and subsequent 150W irradiation for 30 secs by fluorescence microscopic analysis. The class given is functional, cell-based. The settings on record: Cricetulus griseus.
The subject of series [8] is CHO. Nature of the series: Induction of plasma membrane-mediated necrosis in EthD1-labelled CHO cells at 1 uM incubated for two hrs at 4 degC followed by compound washout and subsequent 150W irradiation for 30 secs by fluorescence microscopic analysis. Format: functional, cell-based. Conditions: Cricetulus griseus.

Each structure is given as a SMILES string. Calls of active or inactive are those of the source. The rule behind the calls is not given here.

Turning to `CN1CC2c3nc(c(-c4c(F)c(F)c(S[C@@H]5O[C@H](CO)[C@@H](O)[C@H](O)[C@H]5O)c(F)c4F)c4ccc([nH]4)c(-c4c(F)c(F)c(S[C@@H]5O[C@H](CO)[C@@H](O)[C@H](O)[C@H]5O)c(F)c4F)c4nc(c(-c5c(F)c(F)c(S[C@@H]6O[C@H](CO)[C@@H](O)[C@H](O)[C@H]6O)c(F)c5F)c5ccc([nH]5)c3-c3c(F)c(F)c(S[C@@H]5O[C@H](CO)[C@@H](O)[C@H](O)[C@H]5O)c(F)c3F)C=C4)C2C1` (stereo partly drawn), the Drug uptake result in series [1], in series [2] and in series [3] was “Active” throughout. Besides, the result with CHO [4], with CHO [5] and in the series with CHO [8] was Active. Besides, the Activity result in series [6] is given as “Non-Toxic”. In addition, the result with CHO [7] was inactive.
